From US20230165867A1 (CHENGDU BAIYU PHARMACEUTICAL CO., LTD., priority 2020, published 2023)
Read-outs that look alike come from different tables or passages of the source.

Experiments:
DNA-PK kinase = biological target: T1, DNA-PK kinase (Homo sapiens, UniProt P78527); assay: Inhibition assay of DNA-PK kinase (Promega kit, ADP-Glo chemiluminescence); format: biochemical; conditions: 50 µM ATP, 37° C., 60 min; read-out: IC50 (nM), inhibitory activity on DNA-PK kinase
T1 construct: purchased Promega V4107
Summary of the method: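 Compounds incubated with DNA-PK at 37° C for 60 min; reaction stopped with ADP-Glo reagent (40 min, RT), then kinase detection reagent (30 min, RT). ADP formed read by luminescence against an ADP standard curve.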

[1] = Pharmacokinetic assay in ICR mice (i.v. and p.o.); format: in vivo; conditions: mouse, plasma, male ICR mice; for half-life: read-out: T½ (converted); for bioavailability: po 10 mg/kg vs iv 1 mg/kg
Experimental: ICR mice were purchased from Beijing Vital River Laboratory Animal Technology Co., Ltd.
3.2 Experimental procedure • (1) Healthy male ICR mice (18-22 g) were prepared, with 18 mice for each compound. The mice were divided into 2 groups (an i.v. group and a p.o. group), with 9 mice per group. 3 mice were picked for blood collection at each time point. • (2) After the animals were fasted overnight (with free access to water), the compound of the present invention dissolved (or suspended) in a solvent of 5% DMSO and 95% 30% HP-β-CD (v:v) was administered via the tail vein (i.v., 1 mg/kg) or intragastrically (p.o., 10 mg/kg), respectively. • (3) For the i.v. group, 0.1 mL blood was collected from the submandibular vein 5 min, 15 min, 0.5 h, 1 h, 2 h, 4 h, 8 h, 12 h, and 24 h after administration, respectively, anticoagulated with EDTA-K2, and centrifuged at 4° C. for 5 min to obtain plasma, which was stored at -20° C. until testing. (4) For the p.o. group, 0.1 mL blood was collected from the submandibular vein before administration and 15 min, 0.5 h, 1 h, 2 h, 4 h, 6 h, 8 h, 12 h, and 24 h after administration, and treated in the same manner as that for the intravenous group. • (5) The concentration of the compound of the present invention in plasma was measured by LC/MS/MS. • (6) Calculation and fitting were performed with Analyst 1.6 from AB Company, and the results are shown in Table 3.

[2] = Metabolic stability in liver microsomes; format: in vitro ADME, human; conditions: human, human liver microsomes; 0.5 µM test substance, 0.5 mg/mL microsomes, NADPH and UDPGA, 37° C.; read-out: T½(min), stability in human liver microsomes
Experimental: Liver microsomes (purchased from Reed Liver Disease Research (Shanghai) Co., Ltd., product: human liver microsomes (NJT)); NADPH (purchased from Roche, Lot: 40939); UDPGA; the compounds of the present invention (test substances).
• (1) A mixed working solution of testosterone (0.5 µM) and 7-hydroxycoumarin (0.5 µM) was prepared. • (2) A mixed solution of NADPH (1 mM) and UDPGA (1 mM) was prepared, and prewarmed at 37° C. in a water bath shaker before use. • (3) Liver microsomes were thawed and diluted with a buffer. • (4) A preparation of a test substance (0.5 µM) and a solution of liver microsomes (0.5 mg/mL) were added to each well of an incubation plate. • (5) Three experimental groups were set and samples were added. Test group: the test substance was incubated with liver microsomes for 0 min, 30 min, 60 min, and 120 min in the presence of the coenzyme NADPH and UDPGA; Positive control group: testosterone (0.5 µM) and 7-hydroxycoumarin (0.5 µM) were incubated with microsomes for 0 min and 120 min in the presence of the coenzyme NADPH and UDPGA; Negative control group: the test substance was incubated with microsomes for 0 and 120 min without any coenzyme. • (6) All samples were incubated at 37° C., and pre-cooled methanol was added at each termination time (0, 15, 30, 45, 60 min, 120 min) to terminate the reaction, and the time was recorded. • (7) All samples were mixed well and centrifuged at 4000 rpm for 10 min. The supernatant was taken and measured by LC-MS/MS for the amount of the test substance remaining in the samples. Data analysis was carried out as follows: T½=0.693 /k, Clint = (0.693/T½) × (1 /(microsomal protein) × Scaling Factors), Note: k is the slope of the logarithm of the remaining amounts of compound versus time.

Compound	IC50 (DNA-PK kinase)	AUC ([1]; iv, 1 mg/kg)	half-life ([1]; iv, 1 mg/kg)	bioavailability [1]	AUC ([1]; po, 10 mg/kg)	Cmax ([1]; po, 10 mg/kg)	half-life ([1]; po, 10 mg/kg)	half-life at 0.5 µM [2]
COc1cc(C)c(Nc2ncc3c(n2)n(C2CCOCC2)c(=O)n3C)cn1 [Compound 9, 2-((6-methoxy-4-methylpyridin-3-yl)amino)-7-methyl-9-(tetrahydro-2H-pyran-4-yl)-7,9-dihydro-8H-purin-8-one]	0.47 nM	323 ng·h/mL	0.41 h	51.4%	1660 ng·h/mL	1490 ng/mL	1.34 h	> 120 min
Cn1c(=O)n(C2CCOCC2)c2nc(Nc3ccc(C(N)=O)cc3Cl)ncc21 [Compound 26, 3-Chloro-4-((7-methyl-8-oxo-9-(tetrahydro-2H-pyran-4-yl)-8,9-dihydro-7H-purin-2-yl)amino)benzamide]	7.6 nM	639 ng·h/mL	1.52 h	110%	7100 ng·h/mL	2730 ng/mL	2.99 h	> 120 min
CCNC(=O)c1ccc(Nc2ncc3c(n2)n(C2CCOCC2)c(=O)n3C)c(C)c1 [Compound 29, N-ethyl-3-methyl-4-((7-methyl-8-oxo-9-(tetrahydro-2H-pyran-4-yl)-8,9-dihydro-7H-purin-2-yl)amino)benzamide]	3.9 nM	609 ng·h/mL	0.46 h	42.1%	2560 ng·h/mL	1820 ng/mL	1.22 h	> 120 min
[2H]C([2H])([2H])Oc1cc(C)c(Nc2ncc3c(n2)n(C2CCOCC2)c(=O)n3C)cn1 [Compound 38, 2-((6-(methoxy-d3)-4-methylpyridin-3-yl)amino)-7-methyl-9-(tetrahydro-2H-pyran-4-yl)-7,9-dihydro-8H-purin-8-one]	0.47 nM	269 ng·h/mL	0.341 h	47.7%	1310 ng·h/mL	2200 ng/mL	1.02 h	> 120 min
Cc1sc(C(N)=O)cc1Nc1ncc2c(n1)n(C1CCOCC1)c(=O)n2C [Compound 42, 5-Methyl-4-((7-methyl-8-oxo-9-(tetrahydro-2H-pyran-4-yl)-8,9-dihydro-7H-purin-2-yl)amino)thiophene-2-carboxamide]	2.05 nM	230 ng·h/mL	1.41 h	70%	1500 ng·h/mL	858 ng/mL	1.73 h	> 120 min
CNC(=O)c1cc(C)c(Nc2ncc3c(n2)n(C2CCOCC2)c(=O)n3C)cn1 [Compound 54, N,4-Dimethyl-5-((7-methyl-8-oxo-9-(tetrahydro-2H-pyran-4-yl)-8,9-dihydro-7H-purin-2-yl)amino)picolinamide]	8.07 nM	840 ng·h/mL	5.22 h	63.9%	5370 ng·h/mL	2060 ng/mL	3.21 h	> 120 min
Cc1cc(C(N)=O)c(F)cc1Nc1ncc2c(n1)n([C@H]1CCOC1)c(=O)n2C [Compound 75, (S)-2-fluoro-5-methyl-4-((7-methyl-8-oxo-9-(tetrahydrofuran-3-yl)-8,9-dihydro-7H-purin-2-yl)amino)benzamiderile]	5.69 nM	109 ng·h/mL	0.31 h	69.2%	756 ng·h/mL	984 ng/mL	2.1 h	> 120 min
Cc1cc(C(N)=O)c(F)cc1Nc1ncc2c(n1)n([C@@H]1CCOC1)c(=O)n2C [Compound 76, (R)-2-fluoro-5-methyl-4-((7-methyl-8-oxo-9-(tetrahydrofuran-3-yl)-8,9-dihydro-7H-purin-2-yl)amino)benzamiderile]	1.96 nM	120 ng·h/mL	0.3 h	104%	1360 ng·h/mL	1570 ng/mL	0.93 h	> 120 min
Cc1cc(C(N)=O)c(F)cc1Nc1ncc2c(n1)n([C@H]1CC[C@@H](C#N)CC1)c(=O)n2C [Compound 77, 4-((9-(cis-4-cyanocyclohexyl)-7-methyl-8-oxo-8,9-dihydro-7H-purin-2-yl)amino)-2-fluoro-5-methylbenzamide]	4.67 nM	545 ng·h/mL	1.55 h	108%	5970 ng·h/mL	1750 ng/mL	3.24 h	> 120 min
Cc1cc(C(N)=O)c(F)cc1Nc1ncc2c(n1)n([C@H]1CC[C@H](C#N)CC1)c(=O)n2C [Compound 79, 4-((9-(trans-4-cyanocyclohexyl)-7-methyl-8-oxo-8,9-dihydro-7H-purin-2-yl)amino)-2-fluoro-5-methylbenzamide]	1.86 nM	482 ng·h/mL	0.63 h	100%	4440 ng·h/mL	2490 ng/mL	2.15 h	> 120 min
Cc1cc(C#N)ccc1Nc1ncc2c(n1)n([C@H]1CC[C@H](C#N)CC1)c(=O)n2C [Compound 80, 4-((9-(trans-4-cyanocyclohexyl)-7-methyl-8-oxo-8,9-dihydro-7H-purin-2-yl)amino)-3-methylbenzonitrile]	11.1 nM	6300 ng·h/mL	3.12 h	33.6%	21200 ng·h/mL	3570 ng/mL	2.16 h	> 120 min
Cc1cc(C(N)=O)c(F)cc1Nc1ncc2c(n1)n([C@H]1C[C@H](O)C1)c(=O)n2C [Compound 93, 2-Fluoro-4-((9-(trans-3-hydroxycyclobutyl)-7-methyl-8-oxo-8,9-dihydro-7H-purin-2-yl)amino)-5-methylbenzamide]	0.75 nM	–	–	–	–	–	–	> 120 min
